Laboratory results as given in PMC7584652 (Nature Communications, 2020).

Experiments:
Conditions in all cases: labelled compound ([5′-α-32P]); 10 mM Tris pH 7.5, 100 mM NaCl, 5 mM MgCl2, room temperature
GuaC = GuaC (Bacillus anthracis, UniProt Q81JJ9)
PurR = PurR (Bacillus anthracis, UniProt A0AAC8NAH2)
RbgA = molecular target: T1, RbgA (Bacillus anthracis, UniProt A0A6L8PZ03)
T1 construct: gene GBAA_3976

YjbM (SAS1) = molecular target: T2, YjbM (SAS1) (Bacillus anthracis, UniProt A0A2P0HBB4)
T2 construct: gene BA_1212

Nc1nc2c(ncn2[C@@H]2O[C@H](COP(=O)(O)O)[C@@H](OP(=O)(O)OP(=O)(O)O)[C@H]2O)c(=O)[nH]1 [pGpp, guanosine-5′-monophosphate-3′-diphosphate]
DRaCALA screen in E. coli overexpression lysate (GuaC): including HprT, Xpt, Gmk, and GuaC, bound both pGpp and (p)ppGpp

Nc1nc2c(ncn2[C@@H]2O[C@H](COP(=O)(O)OP(=O)(O)O)[C@@H](OP(=O)(O)OP(=O)(O)O)[C@H]2O)c(=O)[nH]1 [ppGpp]
DRaCALA screen in E. coli overexpression lysate (PurR): purine nucleotide synthesis proteins (Hpt1, Xpt, Gmk, GuaC, PurA, and PurR)
DRaCALA screen in E. coli overexpression lysate (RbgA): ribosome and translation regulatory GTPases (HflX, Der, Obg, RbgA, TrmE, and Era)

Nc1nc2c(ncn2[C@@H]2O[C@H](COP(=O)(O)OP(=O)(O)OP(=O)(O)O)[C@@H](OP(=O)(O)OP(=O)(O)O)[C@H]2O)c(=O)[nH]1 [pppGpp]
DRaCALA screen in E. coli overexpression lysate (YjbM (SAS1)): several proteins bind to pppGpp but not ppGpp, including the small alarmone synthetase YjbM
